From PubChem BioAssay AID1259407 (Chemical Carcinogenesis Research Information System (CCRIS), 2018)
Calls of active or inactive are those of the source. How the calls were made is not given here.

Test system: CCRIS mutagenicity, Ames/micronucleus/aberration tests
Test: CCRIS mutagenicity studies
[1] = Test System: AMES SALMONELLA TYPHIMURIUM, Strain/Indicator: TA98, Metabolic Activation: RAT, LIVER, S-9, AROCLOR 1254, Method: STANDARD PLATE
[2] = Test System: AMES SALMONELLA TYPHIMURIUM, Strain/Indicator: TA100, Metabolic Activation: NONE, Method: PREINCUBATION
[3] = Test System: AMES SALMONELLA TYPHIMURIUM, Strain/Indicator: TA100, Metabolic Activation: RAT, LIVER, S-9, AROCLOR 1254, Method: STANDARD PLATE
[4] = Test System: AMES SALMONELLA TYPHIMURIUM, Strain/Indicator: TA1538, Metabolic Activation: RAT, LIVER, S-9, AROCLOR 1254, Method: STANDARD PLATE
[5] = Test System: AMES SALMONELLA TYPHIMURIUM, Strain/Indicator: TA98, Metabolic Activation: NONE, Method: STANDARD PLATE
[6] = Test System: AMES SALMONELLA TYPHIMURIUM, Strain/Indicator: TA100, Metabolic Activation: NONE, Method: STANDARD PLATE

COc1cc2c(c3oc4cccc(O)c4c(=O)c13)[C@@H]1C=CO[C@@H]1O2
mutagenic call (End Point: IN VITRO MICRONUCLEUS, Test System: AHH-1 CELLS, Metabolic Activation: NONE): active; positive
mutagenic call (End Point: IN VITRO MICRONUCLEUS, Test System: MCL-5 CELLS, Metabolic Activation: NONE): active; positive
mutagenic call (Test System: AMES SALMONELLA TYPHIMURIUM, Strain/Indicator: TA98, Metabolic Activation: R,L,S-9, PHENOBARBITAL, Method: STANDARD PLATE): inactive; negative
mutagenic call (Test System: AMES SALMONELLA TYPHIMURIUM, Strain/Indicator: TA98, Metabolic Activation: RAT, LIVER, MICROSOMES, PHENOBARBITAL, Method: STANDARD PLATE): active; positive
mutagenic call [1]: active; positive
mutagenic call (Test System: AMES SALMONELLA TYPHIMURIUM, Strain/Indicator: TA98, Metabolic Activation: RAT, LIVER, S-9, KC500 OR PHENOBARBITAL, Method: LIQUID SUSPENSION): active; positive
mutagenic call (Test System: AMES SALMONELLA TYPHIMURIUM, Strain/Indicator: TA98, Metabolic Activation: RAT, LIVER, S-9, PHENOBARBITAL, Method: STANDARD PLATE): inactive; negative
mutagenic call [2]: active; positive
mutagenic call (Test System: AMES SALMONELLA TYPHIMURIUM, Strain/Indicator: TA100, Metabolic Activation: R,L,S-9, PHENOBARBITAL, Method: STANDARD PLATE): active; positive
mutagenic call (Test System: AMES SALMONELLA TYPHIMURIUM, Strain/Indicator: TA100, Metabolic Activation: RAT, LIVER, MICROSOMES, PHENOBARBITAL, Method: STANDARD PLATE): active; positive
mutagenic call [3]: active; positive
mutagenic call (Test System: AMES SALMONELLA TYPHIMURIUM, Strain/Indicator: TA100, Metabolic Activation: RAT, LIVER, S-9, KC500 OR PHENOBARBITAL, Method: LIQUID SUSPENSION): active; positive
mutagenic call (Test System: AMES SALMONELLA TYPHIMURIUM, Strain/Indicator: TA100, Metabolic Activation: RAT, LIVER, S-9, PHENOBARBITAL, Method: PREINCUBATION): active; positive
mutagenic call (Test System: AMES SALMONELLA TYPHIMURIUM, Strain/Indicator: TA100, Metabolic Activation: RAT, LIVER, S-9, PHENOBARBITAL, Method: STANDARD PLATE): active; positive
mutagenic call [4]: active; positive
mutagenic call (Test System: UDS HUMAN CELLS, Strain/Indicator: THY INCORP (NON-S-PHASE), Metabolic Activation: RAT, LIVER, S-9, PHENOBARBITAL, Method: LIQUID SCINTILLATION COUNTING): active; positive
mutagenic call (Test System: UDS HUMAN FIBROBLASTS, Strain/Indicator: THY INCORP (NON-S-PHASE), Metabolic Activation: MOUSE, LIVER, S-9, Method: AUTORADIOGRAPHY): active; positive

O=C(O)CS
mutagenic call (Test System: AMES SALMONELLA TYPHIMURIUM, Strain/Indicator: TA97, Metabolic Activation: HAMSTER, LIVER, S-9, AROCLOR 1254 (10 OR 30%), Method: PREINCUBATION): inactive; negative
mutagenic call (Test System: AMES SALMONELLA TYPHIMURIUM, Strain/Indicator: TA97, Metabolic Activation: NONE, Method: PREINCUBATION): inactive; negative
mutagenic call (Test System: AMES SALMONELLA TYPHIMURIUM, Strain/Indicator: TA97, Metabolic Activation: RAT, LIVER, S-9, AROCLOR 1254 (10 OR 30%), Method: PREINCUBATION): inactive; negative
mutagenic call (Test System: AMES SALMONELLA TYPHIMURIUM, Strain/Indicator: TA98, Metabolic Activation: HAMSTER, LIVER, S-9, AROCLOR 1254 (10%), Method: PREINCUBATION): inactive; negative
mutagenic call (Test System: AMES SALMONELLA TYPHIMURIUM, Strain/Indicator: TA98, Metabolic Activation: HAMSTER, LIVER, S-9, AROCLOR 1254 (10 OR 30%), Method: PREINCUBATION): inactive; negative
mutagenic call (Test System: AMES SALMONELLA TYPHIMURIUM, Strain/Indicator: TA98, Metabolic Activation: NONE, Method: PREINCUBATION): inactive; negative
mutagenic call (Test System: AMES SALMONELLA TYPHIMURIUM, Strain/Indicator: TA98, Metabolic Activation: RAT, LIVER, S-9, AROCLOR 1254 (10%), Method: PREINCUBATION): inactive; negative
mutagenic call (Test System: AMES SALMONELLA TYPHIMURIUM, Strain/Indicator: TA98, Metabolic Activation: RAT, LIVER, S-9, AROCLOR 1254 (10 OR 30%), Method: PREINCUBATION): inactive; negative
mutagenic call (Test System: AMES SALMONELLA TYPHIMURIUM, Strain/Indicator: TA100, Metabolic Activation: HAMSTER, LIVER, S-9, AROCLOR 1254 (10%), Method: PREINCUBATION): inactive; negative
mutagenic call (Test System: AMES SALMONELLA TYPHIMURIUM, Strain/Indicator: TA100, Metabolic Activation: HAMSTER, LIVER, S-9, AROCLOR 1254 (10 OR 30%), Method: PREINCUBATION): inactive; negative
mutagenic call [2]: inactive; negative
mutagenic call (Test System: AMES SALMONELLA TYPHIMURIUM, Strain/Indicator: TA100, Metabolic Activation: RAT, LIVER, S-9, AROCLOR 1254 (10%), Method: PREINCUBATION): inactive; negative
mutagenic call (Test System: AMES SALMONELLA TYPHIMURIUM, Strain/Indicator: TA100, Metabolic Activation: RAT, LIVER, S-9, AROCLOR 1254 (10 OR 30%), Method: PREINCUBATION): inactive; negative
mutagenic call (Test System: AMES SALMONELLA TYPHIMURIUM, Strain/Indicator: TA1535, Metabolic Activation: HAMSTER, LIVER, S-9, AROCLOR 1254 (10%), Method: PREINCUBATION): inactive; negative
mutagenic call (Test System: AMES SALMONELLA TYPHIMURIUM, Strain/Indicator: TA1535, Metabolic Activation: HAMSTER, LIVER, S-9, AROCLOR 1254 (10 OR 30%), Method: PREINCUBATION): inactive; negative
mutagenic call (Test System: AMES SALMONELLA TYPHIMURIUM, Strain/Indicator: TA1535, Metabolic Activation: NONE, Method: PREINCUBATION): inactive; negative
mutagenic call (Test System: AMES SALMONELLA TYPHIMURIUM, Strain/Indicator: TA1535, Metabolic Activation: RAT, LIVER, S-9, AROCLOR 1254 (10%), Method: PREINCUBATION): inactive; negative
mutagenic call (Test System: AMES SALMONELLA TYPHIMURIUM, Strain/Indicator: TA1535, Metabolic Activation: RAT, LIVER, S-9, AROCLOR 1254 (10 OR 30%), Method: PREINCUBATION): inactive; negative
mutagenic call (Test System: AMES SALMONELLA TYPHIMURIUM, Strain/Indicator: TA1537, Metabolic Activation: HAMSTER, LIVER, S-9, AROCLOR 1254 (10%), Method: PREINCUBATION): inactive; negative
mutagenic call (Test System: AMES SALMONELLA TYPHIMURIUM, Strain/Indicator: TA1537, Metabolic Activation: NONE, Method: PREINCUBATION): inactive; negative
mutagenic call (Test System: AMES SALMONELLA TYPHIMURIUM, Strain/Indicator: TA1537, Metabolic Activation: RAT, LIVER, S-9, AROCLOR 1254 (10%), Method: PREINCUBATION): inactive; negative

CC(=O)c1cccn1[N+](=O)[O-]
mutagenic call [5]: active; positive
mutagenic call [1]: active; positive
mutagenic call [6]: active; positive
mutagenic call [3]: active; positive

COc1cc(N)c(OC)cc1N
mutagenic call [5]: inactive; negative
mutagenic call [1]: active; positive
mutagenic call [6]: inactive; negative
mutagenic call [3]: active; positive
mutagenic call (Test System: AMES SALMONELLA TYPHIMURIUM, Strain/Indicator: TA1535, Metabolic Activation: NONE, Method: STANDARD PLATE): inactive; negative
mutagenic call (Test System: AMES SALMONELLA TYPHIMURIUM, Strain/Indicator: TA1535, Metabolic Activation: RAT, LIVER, S-9, AROCLOR 1254, Method: STANDARD PLATE): inactive; negative
mutagenic call (Test System: AMES SALMONELLA TYPHIMURIUM, Strain/Indicator: TA1537, Metabolic Activation: NONE, Method: STANDARD PLATE): inactive; negative
mutagenic call (Test System: AMES SALMONELLA TYPHIMURIUM, Strain/Indicator: TA1537, Metabolic Activation: RAT, LIVER, S-9, AROCLOR 1254, Method: STANDARD PLATE): active; positive
mutagenic call (Test System: AMES SALMONELLA TYPHIMURIUM, Strain/Indicator: TA1538, Metabolic Activation: NONE, Method: STANDARD PLATE): active; positive
mutagenic call [4]: active; positive
